Laboratory results published in PMC11589458, “Development of bombesin-tubulysin conjugates using multicomponent chemistry to functionalize both the payload and the homing peptide” (Frontiers in Pharmacology, 2024).
Where two headings read alike, the source gives them in different places. Peptide text beside a SMILES is read from it. * marks the point of attachment. X1 = CCCO[C@H](C[C@H](C(C)C)N(CC(=O)NCCC(C)(C)SSCCC(=O)*)C(=O)[C@@H](NC(=O)[C@H]1CCCCN1C)[C@@H](C)CC)c1nc(C(=O)N[C@@H](Cc2ccccc2)C[C@H](C)C(=O)O)cs1; X2 = CCCO[C@H](C[C@H](C(C)C)N(CC(=O)NCCSSCCC(=O)*)C(=O)[C@@H](NC(=O)[C@H]1CCCCN1C)[C@@H](C)CC)c1nc(C(=O)N[C@@H](Cc2ccccc2)C[C@H](C)C(=O)O)cs1

Key:
[1] = system: PC-3 (prostate cancer) cells; format: cell-based, human; conditions: 6 h
Experimental: (§1) [formula] Scheme 1 (A) Solid-phase synthesis of tubugi analogs functionalized with a thiol group at the internal amide N-substituent. WR = Wang resin. (B) Evaluation of the anti-proliferative activity: tubugi effects on cell viability, as determined by a resazurin assay for human prostate cancer PC-3 cells and human colon cancer HCT-116 cells treated for 48 h with tubugi 10a (red dots and line) and tubugi 10b (blue triangles and line). For control and data normalization, cells were routinely treated in parallel with 0.5% (v/v) DMSO (negative control), and as a positive cytotoxicity control with 100 µM digitonin (for data normalization set to 0% cell viability), both in standard growth medium.
(§2) The actual GRPR expression levels of these cell lines were checked by conducting RT-qPCR, as described in the SI. […] The cell viability and proliferation assays were carried out by using a resazurin-based fluorometric assay. The cells were exposed to the bombesin conjugates 20, 21, and 22 for initial 6 h and 48 h, and regardless of the initial incubation time, the cells were then allowed to grow until 72 h in sum were finalized, after which the cell viability was determined (see the SI).
FIGURE 2 (A) Relative human GRPR (mRNA) expression levels in the cell lines used for the flow cytometry and cell viability studies, as detected by using RT-qPCR (n = 3). Data were analyzed by conducting the ΔΔCt methodology using GAPDH as a reference gene and normalized to the GRPR expression level of non-cancerous MCF-10A breast cells as a “healthy” cell reference (set to 1.0). […] (B–D) Cell viability of human cancer (T-47D, PC-3, MDA-MB-231, and HCT-116) and non-cancer (MCF-10A) cell lines after 6 h initial treatment with the bombesin-tubugi conjugates 20 (normal disulfide), 21 (hindered disulfide), and 22 (hindered disulfide and lipidated), medium exchange and subsequent cell cultivation until finalization of 72 h, and subsequent measurement by using fluorometric resazurin assay read-out. […] Each data point was determined with 3-4 biological replicates, each with technical triplicates. […]

[2] = system: MDA-MB-231 (TNBC) cells; format: cell-based, human; conditions: 6 h
Experimental: as §2
(§3) FIGURE 2 (A) Relative human GRPR (mRNA) expression levels in the cell lines used for the flow cytometry and cell viability studies, as detected by using RT-qPCR (n = 3). Data were analyzed by conducting the ΔΔCt methodology using GAPDH as a reference gene and normalized to the GRPR expression level of non-cancerous MCF-10A breast cells as a “healthy” cell reference (set to 1.0). Statistical significance was tested by using an unpaired t-test (*p < 0.05). (B–D) Cell viability of human cancer (T-47D, PC-3, MDA-MB-231, and HCT-116) and non-cancer (MCF-10A) cell lines after 6 h initial treatment with the bombesin-tubugi conjugates 20 (normal disulfide), 21 (hindered disulfide), and 22 (hindered disulfide and lipidated), medium exchange and subsequent cell cultivation until finalization of 72 h, and subsequent measurement by using fluorometric resazurin assay read-out. For control and data normalization, cells were routinely treated in parallel with 0.5% (v/v) DMSO (negative control), and as a positive cytotoxicity control with 100 µM digitonin (for data normalization set to 0% cell viability), both in standard growth medium. Each data point was determined with 3-4 biological replicates, each with technical triplicates. The indicated concentrations are IC50 values as calculated based on the non-linear regression dose-response curves as drawn by using GraphPad Prism 8 software. Error bars indicate the 95% confidence interval. TEXT PRINTED IN THE PICTURE: (B) 20: T-47D (HR+ breast cancer) 594.2 nM (95% CI: 475.2 - n.d. nM); PC-3 (prostate cancer) 695.3 nM (95% CI: 595.6 - n.d. nM); MDA-MB-231 (TNBC) 626.8 nM (95% CI: 430.4 - n.d. nM); HCT-116 (colon cancer) 1,315 nM (95% CI: n.d. - 6,114 nM); MCF-10A (healthy breast) ~ 3,200 nM (95% CI: n.d.) | (C) 21: T-47D (HR+ breast cancer) 740.9 nM (95% CI: 598.2 - 950.1 nM); PC-3 (prostate cancer) 716.4 nM (95% CI: 529.4 - 997.2 nM); MDA-MB-231 (TNBC) 357.0 nM (95% CI: n.d. - 606.4 nM); HCT-116 (colon cancer) ~ 2,000 nM (95% CI: n.d.); MCF-10A (healthy breast) ~ 4,000 nM (95% CI: n.d.) | (D) 22: T-47D (HR+ breast cancer) 70.9 nM (95% CI: 39.3 - 122.4 nM); PC-3 (prostate cancer) 110.7 nM (95% CI: 66.4 - 116.8 nM); MDA-MB-231 (TNBC) 87.8 nM (95% CI: 83.3 - 148.4 nM) […]
(§4) Figure S50. Cell viability of human cancer (T-47D, PC-3, MDA-MB-231) and non-cancer (184B5) cell lines after 6 h initial treatment with the bombesin-tubugi conjugate 22 and its non-conjugated tubugi payload 10b, medium exchange and subsequent cell cultivation until finalization of 72 h, and subsequent measurement by using fluorometric resazurin assay read-out. Each data point was determined in at least 3-4 biological replicates each with technical triplicates. The indicated concentrations are IC50 values as calculated based on the non-linear regression dose-response curves as drawn by using GraphPad Prism 8 software. Error bars indicate the 95% confidence interval.
(§5) (1 picture or pasted object on this page, not shown here)

[3] = system: HCT-116 (colon cancer) cells; experiment: Resazurin cell viability / anti-proliferation assay, HCT-116; format: cell-based, human; conditions: for fold higher IC50 in GRPR-lower expressing HCT-116 than in higher GRPR-expressing cancer cells: compared with T-47D (20) or T-47D and PC-3 (21); for IC50: HCT-116
Experimental: as §1, §2
(§6) FIGURE 2 (A) Relative human GRPR (mRNA) expression levels in the cell lines used for the flow cytometry and cell viability studies, as detected by using RT-qPCR (n = 3). Data were analyzed by conducting the ΔΔCt methodology using GAPDH as a reference gene and normalized to the GRPR expression level of non-cancerous MCF-10A breast cells as a “healthy” cell reference (set to 1.0). Statistical significance was tested by using an unpaired t-test (*p < 0.05). (B–D) Cell viability of human cancer (T-47D, PC-3, MDA-MB-231, and HCT-116) and non-cancer (MCF-10A) cell lines after 6 h initial treatment with the bombesin-tubugi conjugates 20 (normal disulfide), 21 (hindered disulfide), and 22 (hindered disulfide and lipidated), medium exchange and subsequent cell cultivation until finalization of 72 h, and subsequent measurement by using fluorometric resazurin assay read-out. For control and data normalization, cells were routinely treated in parallel with 0.5% (v/v) DMSO (negative control), and as a positive cytotoxicity control with 100 µM digitonin (for data normalization set to 0% cell viability), both in standard growth medium. Each data point was determined with 3-4 biological replicates, each with technical triplicates. The indicated concentrations are IC50 values as calculated based on the non-linear regression dose-response curves as drawn by using GraphPad Prism 8 software. Error bars indicate the 95% confidence interval. TEXT PRINTED IN THE PICTURE: (B) 20: T-47D (HR+ breast cancer) 594.2 nM (95% CI: 475.2 - n.d. nM); PC-3 (prostate cancer) 695.3 nM (95% CI: 595.6 - n.d. nM); MDA-MB-231 (TNBC) 626.8 nM (95% CI: 430.4 - n.d. nM); HCT-116 (colon cancer) 1,315 nM (95% CI: n.d. - 6,114 nM); MCF-10A (healthy breast) ~ 3,200 nM (95% CI: n.d.) | (C) 21: T-47D (HR+ breast cancer) 740.9 nM (95% CI: 598.2 - 950.1 nM); PC-3 (prostate cancer) 716.4 nM (95% CI: 529.4 - 997.2 nM); MDA-MB-231 (TNBC) 357.0 nM (95% CI: n.d. - 606.4 nM); HCT-116 (colon cancer) ~ 2,000 nM (95% CI: n.d.); MCF-10A (healthy breast) ~ 4,000 nM (95% CI: n.d.) | (D) 22: T-47D (HR+ breast cancer) 70.9 nM (95% CI: 39.3 - 122.4 nM); PC-3 (prostate cancer) 110.7 nM (95% CI: 66.4 - 116.8 nM); MDA-MB-231 (TNBC) 87.8 nM (95% CI: 83.3 - 148.4 nM)

[4] = system: MCF-10A (non-cancer, healthy breast epithelium) cells; experiment: Resazurin cell viability assay, MCF-10A; format: cell-based, human; conditions: for fold higher IC50 in GRPR-lowest expressing healthy MCF-10A than in higher GRPR-expressing cancer cells: compared with T-47D (20) or T-47D and PC-3 (21); for IC50: MCF-10A
Experimental: as §2, §6

[5] = system: T-47D (HR+ breast cancer) cells; format: cell-based, human; conditions: 6 h
Experimental: as §2, §3, §4, §5

[6] = Resazurin cell viability assay, the three GRPR-overexpressing cancer cell lines taken together; format: cell-based, human; conditions: 6 h initial treatment; read-out: selectivity: fold higher cytotoxicity for GRPR-overexpressing cells than for healthy 184B5 cells
[7] = system: T-47D, PC-3 and MDA-MB-231 cells; experiment: as above; format: cell-based, human; conditions: 6 h initial treatment
[8] = system: 184B5 (healthy breast) cells; conditions: 6 h
[9] = 6 h initial treatment, medium exchange, cultivation until 72 h, fluorometric resazurin read-out, 3-4 biological replicates, technical triplicates, read-out: IC50
[10] = 6 h initial treatment, read-out: IC50

Row | Compound | IC50 [1] | IC50 [2] | fold higher IC50 in GRPR-lower expressing HCT-116 than in higher GRPR-expressing cancer cells ([3]; 6 h initial treatment) | IC50 [3, 9] | IC50 [3, 10] | IC50 ([3]; 48 h initial treatment) | fold higher IC50 in GRPR-lowest expressing healthy MCF-10A than in higher GRPR-expressing cancer cells ([4]; 6 h initial treatment) | IC50 [4, 10] | IC50 ([4]; 48 h initial treatment) | IC50 [5] | IC50 [4, 9] | selectivity ratio [6] | IC50 ([7]; T-47D, PC-3, MDA-MB-231, read-out: IC50 (range over cell lines)) | fold more potent than the non-lipidated conjugates 20 and 21 ([7]; three cancer cells overexpressing the GRPR) | IC50 [8]
1 | CCCO[C@H](C[C@H](C(C)C)N(CC(=O)NCCSSCCC(=O)NCCCC[C@H](N)C(=O)N[C@@H](CC(N)=O)C(=O)N[C@@H](CCC(N)=O)C(=O)N[C@@H](Cc1c[nH]c2ccccc12)C(=O)N[C@@H](C)C(=O)N[C@H](C(=O)NCC(=O)N[C@@H](Cc1c[nH]cn1)C(=O)N[C@@H](CC(C)C)C(=O)N[C@@H](CCSC)C(N)=O)C(C)C)C(=O)[C@@H](NC(=O)[C@H]1CCCCN1C)[C@@H](C)CC)c1nc(C(=O)N[C@@H](Cc2ccccc2)C[C@H](C)C(=O)O)cs1 [compound 20] (H-K(X2)NQWAVGHLM-NH2) | 695 nM | 627 nM | approximately 2 fold | 1320 nM | ~1300 nM | nanomolar range | ~5.5 fold | ~3200 nM | nanomolar range | – | – | – | – | – | –
2 | CCCO[C@H](C[C@H](C(C)C)N(CC(=O)NCCC(C)(C)SSCCC(=O)NCCCC[C@H](N)C(=O)N[C@@H](CC(N)=O)C(=O)N[C@@H](CCC(N)=O)C(=O)N[C@@H](Cc1c[nH]c2ccccc12)C(=O)N[C@@H](C)C(=O)N[C@H](C(=O)NCC(=O)N[C@@H](Cc1c[nH]cn1)C(=O)N[C@@H](CC(C)C)C(=O)N[C@@H](CCSC)C(N)=O)C(C)C)C(=O)[C@@H](NC(=O)[C@H]1CCCCN1C)[C@@H](C)CC)c1nc(C(=O)N[C@@H](Cc2ccccc2)C[C@H](C)C(=O)O)cs1 [compound 21] (H-K(X1)NQWAVGHLM-NH2) | 716 nM | 357 nM | approximately 2.5 fold | ~2000 nM | – | nanomolar range | ~5.5 fold | – | nanomolar range | 741 nM | ~4000 nM | – | – | – | –
3 | CCCCCCCCCCCCCCNC(=O)CN(CCCC[C@H](N)C(=O)N[C@@H](CC(N)=O)C(=O)N[C@@H](CCC(N)=O)C(=O)N[C@@H](Cc1c[nH]c2ccccc12)C(=O)N[C@@H](C)C(=O)N[C@H](C(=O)NCC(=O)N[C@@H](Cc1c[nH]cn1)C(=O)N[C@@H](CC(C)C)C(=O)N[C@@H](CCSC)C(N)=O)C(C)C)C(=O)CCSSC(C)(C)CCNC(=O)CN(C(=O)[C@@H](NC(=O)[C@H]1CCCCN1C)[C@@H](C)CC)[C@H](C[C@@H](OCCC)c1nc(C(=O)N[C@@H](Cc2ccccc2)C[C@H](C)C(=O)O)cs1)C(C)C [compound 22] | 111 nM | 87.8 nM | – | – | – | – | – | – | – | 70.9 nM | – | 3.5 to 5.5 | 70 to 110 nM | 4- to 10 fold | 392 nM
